# Data published in paper PMC5218480 (PLoS ONE, 2017).
# Test system: MV-4-11 cells
# Test: Gene expression microarray analysis (Affymetrix PrimeView) and GSEA
# Type: cell-based, human
# Parameters: RFU PODN (11730768_x_at) / Fold change /veh PODN (11730768_x_at) / RFU LINC00158 (11744669_a_at) / Fold change /veh LINC00158 (11744669_a_at) / RFU DUSP10 (11751237_a_at) / Fold change /veh DUSP10 (11751237_a_at) / RFU ID3 (11757404_x_at) / Fold change /veh ID3 (11757404_x_at) / RFU PLEKHG5 (11737974_s_at) / Fold change /veh PLEKHG5 (11737974_s_at) / RFU LRRC4B (11730491_at) / Fold change /veh LRRC4B (11730491_at) / RFU GIMAP4 (11747438_a_at) / Fold change /veh GIMAP4 (11747438_a_at) / RFU KRT8 (11758183_x_at) / Fold change /veh KRT8 (11758183_x_at) / RFU CNN1 (11734310_a_at) / Fold change /veh CNN1 (11734310_a_at) / RFU VPS37D (11726825_at) / Fold change /veh VPS37D (11726825_at) / RFU C10orf10 (11716522_x_at) / Fold change /veh C10orf10 (11716522_x_at) / RFU KIR2DL2 /// KIR2DL4 /// KIR2DL5A /// KIR2DL5B /// KIR2DS1 /// KIR2DS2 /// KIR2DS3 /// KIR2DS4 /// KIR3DL3 /// KIR3DL3 /// KIR3DS1 (11738374_at) / Fold change /veh KIR2DL2 /// KIR2DL4 /// KIR2DL5A /// KIR2DL5B /// KIR2DS1 /// KIR2DS2 /// KIR2DS3 /// KIR2DS4 /// KIR3DL3 /// KIR3DL3 /// KIR3DS1 (11738374_at) / RFU C1QL1 (11718748_at) / Fold change /veh C1QL1 (11718748_at) / RFU TMPRSS4 (11747572_a_at) / Fold change /veh TMPRSS4 (11747572_a_at) / RFU HAMP (11756126_x_at) / Fold change /veh HAMP (11756126_x_at) / RFU RNFT2 (11725882_a_at) / Fold change /veh RNFT2 (11725882_a_at) / RFU NR4A2 (11747474_a_at) / Fold change /veh NR4A2 (11747474_a_at) / RFU ABCC12 (11746883_a_at) / Fold change /veh ABCC12 (11746883_a_at) / RFU TMEM136 (11760407_x_at) / Fold change /veh TMEM136 (11760407_x_at) / RFU CLDN22 /// WWC2 (11732394_at) / Fold change /veh CLDN22 /// WWC2 (11732394_at) / RFU HLA-DPB1 (11760878_x_at) / Fold change /veh HLA-DPB1 (11760878_x_at) / RFU SPINT1 (11716480_a_at) / Fold change /veh SPINT1 (11716480_a_at) / RFU GAP43 (11754022_s_at) / Fold change /veh GAP43 (11754022_s_at) / RFU A4GNT (11735810_at) / Fold change /veh A4GNT (11735810_at) / RFU PRB3 (11715151_x_at) / Fold change /veh PRB3 (11715151_x_at) / RFU TUBB4B (11761932_at) / Fold change /veh TUBB4B (11761932_at) / RFU CAPN14 (11732068_a_at) / Fold change /veh CAPN14 (11732068_a_at) / RFU TMCC2 (11721928_a_at) / Fold change /veh TMCC2 (11721928_a_at) / RFU IRGQ (11745062_a_at) / Fold change /veh IRGQ (11745062_a_at) / RFU FAM174B (11720279_a_at) / Fold change /veh FAM174B (11720279_a_at) / RFU TMPRSS4 (11748680_a_at) / Fold change /veh TMPRSS4 (11748680_a_at) / RFU FAM212B (11763350_a_at) / Fold change /veh FAM212B (11763350_a_at) / RFU PLEKHG5 (11743358_a_at) / Fold change /veh PLEKHG5 (11743358_a_at) / RFU ZSCAN30 (11745921_a_at) / Fold change /veh ZSCAN30 (11745921_a_at) / RFU CMKLR1 (11741424_a_at) / Fold change /veh CMKLR1 (11741424_a_at) / RFU LOC101060620 /// MAPK8IP1 (11723275_at) / Fold change /veh LOC101060620 /// MAPK8IP1 (11723275_at) / RFU SPTSSB (11747773_x_at) / Fold change /veh SPTSSB (11747773_x_at) / RFU PRSS12 (11739890_at) / Fold change /veh PRSS12 (11739890_at) / RFU BIN1 (11741810_x_at) / Fold change /veh BIN1 (11741810_x_at) / RFU WNT11 (11732464_a_at) / Fold change /veh WNT11 (11732464_a_at) / RFU C10orf10 (11716521_a_at) / Fold change /veh C10orf10 (11716521_a_at) / RFU C5orf56 (11738089_at) / Fold change /veh C5orf56 (11738089_at) / RFU CYB561 (11721691_x_at) / Fold change /veh CYB561 (11721691_x_at) / RFU ANKRD19P (11752326_a_at) / Fold change /veh ANKRD19P (11752326_a_at) / RFU OR2T12 /// OR2T33 /// OR2T8 (11738714_s_at) / Fold change /veh OR2T12 /// OR2T33 /// OR2T8 (11738714_s_at) / RFU VCAN (11748164_a_at) / Fold change /veh VCAN (11748164_a_at) / RFU JSRP1 (11732532_at) / Fold change /veh JSRP1 (11732532_at) / RFU KRTAP10-11 (11738290_x_at) / Fold change /veh KRTAP10-11 (11738290_x_at) / RFU MYO3A (11730013_a_at) / Fold change /veh MYO3A (11730013_a_at) / RFU EBF3 (11725865_a_at) / Fold change /veh EBF3 (11725865_a_at) / RFU CAMK2N1 (11719241_x_at) / Fold change /veh CAMK2N1 (11719241_x_at) / RFU C5orf56 (11738088_a_at) / Fold change /veh C5orf56 (11738088_a_at) / RFU OLFML3 (11715873_a_at) / Fold change /veh OLFML3 (11715873_a_at) / RFU LOC100653217 /// NTM (11731650_a_at) / Fold change /veh LOC100653217 /// NTM (11731650_a_at) / RFU MAPK11 (11762145_a_at) / Fold change /veh MAPK11 (11762145_a_at) / RFU FIZ1 (11724087_x_at) / Fold change /veh FIZ1 (11724087_x_at) / RFU OASL (11726364_x_at) / Fold change /veh OASL (11726364_x_at) / RFU SOX15 (11748057_x_at) / Fold change /veh SOX15 (11748057_x_at) / RFU CD79A (11719716_a_at) / Fold change /veh CD79A (11719716_a_at) / RFU HIST1H1D (11736915_at) / Fold change /veh HIST1H1D (11736915_at) / RFU CASKIN2 (11723855_a_at) / Fold change /veh CASKIN2 (11723855_a_at) / RFU LOC730098 (11760151_x_at) / Fold change /veh LOC730098 (11760151_x_at) / RFU OR4N2 (11742367_at) / Fold change /veh OR4N2 (11742367_at) / RFU PRRT2 (11749266_a_at) / Fold change /veh PRRT2 (11749266_a_at) / RFU SNX32 (11753110_a_at) / Fold change /veh SNX32 (11753110_a_at) / RFU CDHR5 (11726645_a_at) / Fold change /veh CDHR5 (11726645_a_at) / RFU RCAN1 (11760418_a_at) / Fold change /veh RCAN1 (11760418_a_at) / RFU FAM167A (11723789_a_at) / Fold change /veh FAM167A (11723789_a_at) / RFU FAM26E (11764081_at) / Fold change /veh FAM26E (11764081_at) / RFU ISYNA1 (11749810_s_at) / Fold change /veh ISYNA1 (11749810_s_at) / RFU ACY1 (11761880_at) / Fold change /veh ACY1 (11761880_at) / RFU 11764098_at / Fold change /veh 11764098_at / RFU SAMD14 (11745864_x_at) / Fold change /veh SAMD14 (11745864_x_at) / RFU NPB (11741838_a_at) / Fold change /veh NPB (11741838_a_at) / RFU TMPRSS6 (11731388_a_at) / Fold change /veh TMPRSS6 (11731388_a_at) / RFU KRTAP10-2 (11738614_at) / Fold change /veh KRTAP10-2 (11738614_at) / RFU ARHGAP8 /// PRR5-ARHGAP8 (11727945_x_at) / Fold change /veh ARHGAP8 /// PRR5-ARHGAP8 (11727945_x_at) / RFU KRTAP5-7 /// NADSYN1 (11734609_at) / Fold change /veh KRTAP5-7 /// NADSYN1 (11734609_at) / RFU RASL12 (11751679_a_at) / Fold change /veh RASL12 (11751679_a_at) / RFU CDKN2B (11736163_a_at) / Fold change /veh CDKN2B (11736163_a_at) / RFU PRF1 (11729649_at) / Fold change /veh PRF1 (11729649_at) / RFU, ZNF638 /// ZNF638-IT1 / Fold change vs veh, ZNF638 /// ZNF638-IT1 / RFU, PANK3 / Fold change vs veh, PANK3 / RFU, SH3YL1 / Fold change vs veh, SH3YL1 / RFU, ZEB2 / Fold change vs veh, ZEB2 / RFU, NRIP1 / Fold change vs veh, NRIP1 / RFU, PTTG1IP / Fold change vs veh, PTTG1IP / RFU, CAPN2 / Fold change vs veh, CAPN2 / RFU, MED14 / Fold change vs veh, MED14 / RFU, SNORA58 / Fold change vs veh, SNORA58 / RFU, C1orf63 / Fold change vs veh, C1orf63 / RFU, LRRFIP1 / Fold change vs veh, LRRFIP1 / RFU, NDUFAF7 / Fold change vs veh, NDUFAF7 / RFU, SLC12A2 / Fold change vs veh, SLC12A2 / RFU, IBTK / Fold change vs veh, IBTK / RFU, ESF1 / Fold change vs veh, ESF1 / Fold change vs veh, TMEM50B / RFU, TAOK1 / Fold change vs veh, TAOK1 / RFU, ACBD3 / Fold change vs veh, ACBD3 / RFU, TMA16 / Fold change vs veh, TMA16 / RFU, RWDD3 / Fold change vs veh, RWDD3 / RFU, BCAT1 / Fold change vs veh, BCAT1 / RFU, EDEM3 / Fold change vs veh, EDEM3 / RFU, TMEM33 / Fold change vs veh, TMEM33 / RFU, WDR75 / Fold change vs veh, WDR75 / RFU, AHCTF1 / Fold change vs veh, AHCTF1 / RFU, TFRC / Fold change vs veh, TFRC / RFU, ZDHHC17 / Fold change vs veh, ZDHHC17 / RFU, NOM1 / Fold change vs veh, NOM1 / RFU, ARL8B / Fold change vs veh, ARL8B / RFU, ZBTB11 / Fold change vs veh, ZBTB11 / RFU, TAMM41 / Fold change vs veh, TAMM41 / RFU, KIAA1704 /// LOC100996395 / Fold change vs veh, KIAA1704 /// LOC100996395 / RFU, ING1 / Fold change vs veh, ING1 / RFU, TRMT61B / Fold change vs veh, TRMT61B / RFU, FUBP3 / Fold change vs veh, FUBP3 / RFU, TP53 / Fold change vs veh, TP53 / RFU, TNKS2 / Fold change vs veh, TNKS2 / RFU, ZFP14 / Fold change vs veh, ZFP14 / RFU, ACTR2 / Fold change vs veh, ACTR2 / RFU, PPP3R1 / Fold change vs veh, PPP3R1 / RFU, PIK3R1 / Fold change vs veh, PIK3R1 / RFU, HNRNPA1 / Fold change vs veh, HNRNPA1 / RFU, RNF170 / Fold change vs veh, RNF170 / RFU, ZNF28 / Fold change vs veh, ZNF28 / RFU, RNGTT / Fold change vs veh, RNGTT / RFU, OGT / Fold change vs veh, OGT / RFU, BRD1 / Fold change vs veh, BRD1 / RFU, MARS / Fold change vs veh, MARS / RFU, ZNF655 / Fold change vs veh, ZNF655 / RFU, FAHD1 / Fold change vs veh, FAHD1 / RFU, BDP1 / Fold change vs veh, BDP1 / RFU, LRRCC1 / Fold change vs veh, LRRCC1 / RFU, ARID1A / Fold change vs veh, ARID1A / RFU, ZNF146 / Fold change vs veh, ZNF146 / RFU, ZNF330 / Fold change vs veh, ZNF330 / RFU, GPN3 / Fold change vs veh, GPN3 / RFU, C9orf123 / Fold change vs veh, C9orf123 / RFU, N4BP2L2 / Fold change vs veh, N4BP2L2 / RFU, ARFIP1 / Fold change vs veh, ARFIP1 / RFU, FAM179B / Fold change vs veh, FAM179B / RFU, BCL10 / Fold change vs veh, BCL10 / RFU, UHRF1BP1L / Fold change vs veh, UHRF1BP1L / RFU, BET1 / Fold change vs veh, BET1 / RFU, CNOT2 / Fold change vs veh, CNOT2 / RFU, ZNF268 / Fold change vs veh, ZNF268 / Fold change vs veh, ZNF507 / RFU, DGCR2 / Fold change vs veh, DGCR2 / RFU, WDSUB1 / Fold change vs veh, WDSUB1 / Fold change vs veh, HSP90B1 /// MIR3652 / RFU, ADSS / Fold change vs veh, ADSS / RFU, GK / Fold change vs veh, GK / RFU, ZNF148 / Fold change vs veh, ZNF148 / RFU, TAF9 / Fold change vs veh, TAF9 / RFU, SLC1A5 / Fold change vs veh, SLC1A5 / RFU, SLMO2 / Fold change vs veh, SLMO2 / RFU, ABCC4 / Fold change vs veh, ABCC4 / RFU, LOC101060439 /// RAP1B / Fold change vs veh, LOC101060439 /// RAP1B / RFU, RFX7 / Fold change vs veh, RFX7 / RFU, GTPBP10 / Fold change vs veh, GTPBP10 / RFU, CNEP1R1 / Fold change vs veh, CNEP1R1 / RFU, BIVM-ERCC5 /// ERCC5 / Fold change vs veh, BIVM-ERCC5 /// ERCC5 / RFU, ILF3 / Fold change vs veh, ILF3 / RFU 11762660_at / Fold change /veh 11762660_at / RFU VCAN (11757783_s_at) / Fold change /veh VCAN (11757783_s_at) / RFU DDX43 (11728927_at) / Fold change /veh DDX43 (11728927_at) / RFU KRT8 (11758188_x_at) / Fold change /veh KRT8 (11758188_x_at) / RFU NKD1 (11759106_at) / Fold change /veh NKD1 (11759106_at) / RFU SRD5A1 (11742802_a_at) / Fold change /veh SRD5A1 (11742802_a_at) / RFU TPSAB1 /// TPSB2 (11721975_s_at) / Fold change /veh TPSAB1 /// TPSB2 (11721975_s_at) / RFU GSTM3 (11746129_a_at) / Fold change /veh GSTM3 (11746129_a_at) / RFU IL23R (11737362_x_at) / Fold change /veh IL23R (11737362_x_at) / RFU TMEM51 (11727254_a_at) / Fold change /veh TMEM51 (11727254_a_at) / RFU PIWIL2 (11732686_x_at) / Fold change /veh PIWIL2 (11732686_x_at) / RFU ORM1 (11744905_x_at) / Fold change /veh ORM1 (11744905_x_at) / RFU CCDC152 (11743942_at) / Fold change /veh CCDC152 (11743942_at) / RFU ECM1 (11717891_a_at) / Fold change /veh ECM1 (11717891_a_at) / RFU IL23R (11748794_a_at) / Fold change /veh IL23R (11748794_a_at) / RFU TNFAIP8L3 (11732012_x_at) / Fold change /veh TNFAIP8L3 (11732012_x_at) / RFU MBOAT4 (11741988_at) / Fold change /veh MBOAT4 (11741988_at) / RFU 11764193_at / Fold change /veh 11764193_at / RFU TMEM53 (11763286_at) / Fold change /veh TMEM53 (11763286_at) / RFU MAGEB2 (11727129_at) / Fold change /veh MAGEB2 (11727129_at) / RFU TMEM200A (11744735_a_at) / Fold change /veh TMEM200A (11744735_a_at) / RFU CCDC152 (11751479_a_at) / Fold change /veh CCDC152 (11751479_a_at) / RFU FAM211A (11726209_a_at) / Fold change /veh FAM211A (11726209_a_at) / RFU RGS16 (11746705_a_at) / Fold change /veh RGS16 (11746705_a_at) / RFU VCAN (11755009_s_at) / Fold change /veh VCAN (11755009_s_at) / RFU RHOB (11743442_s_at) / Fold change /veh RHOB (11743442_s_at) / RFU RGS16 (11720943_a_at) / Fold change /veh RGS16 (11720943_a_at) / RFU RGS16 (11720944_at) / Fold change /veh RGS16 (11720944_at) / RFU, VPS4B / Fold change vs veh, VPS4B / RFU, CREB1 / Fold change vs veh, CREB1 / RFU, DNAJC13 / Fold change vs veh, DNAJC13 / RFU, GNAQ / Fold change vs veh, GNAQ / RFU, CDK5R1 / Fold change vs veh, CDK5R1 / RFU, ZRANB3 / Fold change vs veh, ZRANB3 / RFU, CUL4A / Fold change vs veh, CUL4A / RFU, CCNY / Fold change vs veh, CCNY / RFU, UFL1 / Fold change vs veh, UFL1 / RFU, COG3 / Fold change vs veh, COG3 / RFU, DIAPH2 / Fold change vs veh, DIAPH2 / RFU, SKA2 / Fold change vs veh, SKA2 / RFU, AFF3 / Fold change vs veh, AFF3 / RFU, LMF1 / Fold change vs veh, LMF1 / RFU, IPO11 / Fold change vs veh, IPO11 / RFU, DFFB / Fold change vs veh, DFFB / RFU, FOXP1 / Fold change vs veh, FOXP1 / RFU, CARD8 / Fold change vs veh, CARD8 / RFU, STRN3 / Fold change vs veh, STRN3 / RFU, ADK / Fold change vs veh, ADK / RFU, RASSF2 / Fold change vs veh, RASSF2 / RFU, WIPF1 / Fold change vs veh, WIPF1 / RFU, LARP1B / Fold change vs veh, LARP1B / RFU, RASA1 / Fold change vs veh, RASA1 / RFU, RB1 / Fold change vs veh, RB1 / RFU, PPFIA1 / Fold change vs veh, PPFIA1 / RFU, MAT2A / Fold change vs veh, MAT2A / RFU, CCT5 / Fold change vs veh, CCT5 / RFU, WDR92 / Fold change vs veh, WDR92 / RFU, CUX1 / Fold change vs veh, CUX1 / RFU, TTC7A / Fold change vs veh, TTC7A / RFU, TMEM135 / Fold change vs veh, TMEM135 / RFU, DEPTOR / Fold change vs veh, DEPTOR / RFU, CPM / Fold change vs veh, CPM / RFU, DNAJB6 / Fold change vs veh, DNAJB6 / RFU, CACNA2D3 / Fold change vs veh, CACNA2D3 / RFU, DTX4 / Fold change vs veh, DTX4 / RFU, TFCP2 / Fold change vs veh, TFCP2 / RFU, GMCL1 /// GMCL1P1 / Fold change vs veh, GMCL1 /// GMCL1P1 / RFU, AEBP2 / Fold change vs veh, AEBP2 / RFU, SNHG1 /// SNORD22 /// SNORD25 /// SNORD26 /// SNORD27 /// SNORD28 /// SNORD29 /// SNORD31 / Fold change vs veh, SNHG1 /// SNORD22 /// SNORD25 /// SNORD26 /// SNORD27 /// SNORD28 /// SNORD29 /// SNORD31 / Fold change (Aza/veh), C12orf56 (ProbeSet 11735607_a_at) / Fold change (ACY-1035/veh), C12orf56 (ProbeSet 11735607_a_at) / Fold change (Aza/veh), FGFR1OP (ProbeSet 11751329_s_at) / Fold change (ACY-1035/veh), FGFR1OP (ProbeSet 11751329_s_at) / Fold change (Aza/veh), VPS36 (ProbeSet 11739960_a_at) / Fold change (ACY-1035/veh), VPS36 (ProbeSet 11739960_a_at) / RFU SYPL1 (11715823_x_at) / Fold change /veh SYPL1 (11715823_x_at) / RFU IGFBP7 (11715501_s_at) / Fold change /veh IGFBP7 (11715501_s_at) / RFU REEP3 (11722064_at) / Fold change /veh REEP3 (11722064_at) / RFU IGLL1 (11728026_x_at) / Fold change /veh IGLL1 (11728026_x_at): dose or concentration left out as unconfirmed
# Conditions: ProbeSet 11743362_s_at; LIST B
smiles,measurement,value
Nc1ccc(-c2cccs2)cc1NC(=O)c1ccc2c(c1)cc(C1CC1)n2CCN1CCOCC1 [ACY-1035],"RFU, ADSS",662.69 RFU
